From US10703746B2, “Mutant IDH1 inhibitors useful for treating cancer” (THE UNITED STATES OF AMERICA, AS REPRESENTED BY THE …, priority 2014, dated 2020)

Tests used:
IDH1 R132H = IDH1 R132H (Homo sapiens, UniProt O75874, R132H); assay: IDH1 R132H enzymatic assay (NADPH depletion coupled to diaphorase/resazurin); format: biochemical
IDH1 R132C = IDH1 R132C (Homo sapiens, UniProt O75874, R132C); assay: IDH1 R132C enzymatic assay (NADPH depletion coupled to diaphorase/resazurin); format: biochemical
Chain of IDH1 R132C (O75874 whole entry R132C): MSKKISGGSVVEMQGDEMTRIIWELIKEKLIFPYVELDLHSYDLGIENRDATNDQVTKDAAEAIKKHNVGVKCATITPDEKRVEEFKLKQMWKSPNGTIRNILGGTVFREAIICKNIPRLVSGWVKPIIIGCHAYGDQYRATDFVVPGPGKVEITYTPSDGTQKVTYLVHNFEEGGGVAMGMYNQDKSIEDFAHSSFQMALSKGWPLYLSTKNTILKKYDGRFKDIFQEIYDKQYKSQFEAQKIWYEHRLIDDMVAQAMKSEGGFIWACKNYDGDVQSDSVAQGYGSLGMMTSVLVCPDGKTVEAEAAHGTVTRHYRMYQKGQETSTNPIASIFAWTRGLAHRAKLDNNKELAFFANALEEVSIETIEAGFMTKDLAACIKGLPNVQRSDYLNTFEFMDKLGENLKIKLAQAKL
Outline: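 NADPH depletion, read via diaphorase/resazurin coupling, after adding substrate at 0.6 mM α-KG and 0.012 mM NADPH. Beforehand, 0.00032 mg/mL enzyme sat with compound 30 min at room temperature in pH 6.5 potassium phosphate buffer with MgCl2, glycerol and BSA.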

[1] = IDH1 R132H enzymatic inhibition, IC50 class
[2] = IDH1 R132C enzymatic inhibition, IC50 class
[3] = enzymatic inhibition, IDH1 R132H
[4] = enzymatic inhibition, IDH1 R132C

Chain of IDH1 R132H (O75874 whole entry R132H): as the sequence (O75874 whole entry R132C) above, with C132H counted along it

Row | SMILES | IC50 (IDH1 R132H; [1]) | IC50 (IDH1 R132C; [2]) | IC50 (IDH1 R132H; [3]) | IC50 (IDH1 R132C; [4])
1 | CCc1cccc(CC)c1-n1c(O)c(C(=O)CC(C)C)cc(-c2nc(-c3ccc(Cl)cc3)cs2)c1=O [Compound 392] | 5 to 20 µM | 5 to 20 µM | – | –
2 | CCc1cccc(CC)c1-n1c(C=C(C)C)c(C(=O)N2CCNCC2)cc(-c2nc(-c3ccc(C(F)F)nc3)cs2)c1=O [Compound 546] | – | – | < 0.3 µM | < 0.3 µM
3 | CCc1ncc(F)cc1-n1c(C=C(C)C)c(C(=O)N2CCNCC2)cc(-c2nc(-c3ccc(C(F)F)cn3)cs2)c1=O [Compound 619] | 1 to 5 µM | 1 to 5 µM | – | –
4 | COc1ccc(F)cc1-n1c2c(cc(-c3nc(-c4ccc(Cl)cc4)cs3)c1=O)C(=O)CC(C)(C)C2 [Compound 669] | 0.3 to 1 µM | 0.3 to 1 µM | – | –
5 | CCc1cccc(CC)c1-n1c(CC(C)C)c(C(=O)N[C@H](CO)c2ccccc2)cc(-c2nc(-c3ccc(Cl)cc3)cs2)c1=O [Compound 10] | 0.3 to 1 µM | < 0.3 µM | – | –
6 | CCc1cccc(CC)c1-n1c(CC(C)C)c(C(=O)NC)cc(-c2nc(-c3ccc(Cl)cc3)cs2)c1=O [Compound 33] | 0.3 to 1 µM | < 0.3 µM | – | –
7 | CCc1cccc(CC)c1-n1c(C=C(C)C)c(C(=O)N(C)C2CCNCC2)cc(-c2nc(-c3ccc(Cl)cc3)cs2)c1=O [Compound 523] | – | – | < 0.3 µM | < 0.3 µM
8 | CCc1cccc(CC)c1-n1c(CC(C)C)c(C(=O)N2CCNCC2)cc(-n2cc(-c3ccc(Cl)cc3)cn2)c1=O [Compound 658] | 5 to 20 µM | 5 to 20 µM | – | –
9 | CCOc1ncc(C)cc1-n1c(C=C(C)C)c(C(=O)N2CCNCC2)cc(-c2nc(-c3ccc(C(F)F)nc3)cs2)c1=O [Compound 326] | < 0.3 µM | 0.3 to 1 µM | – | –
10 | CCc1cccc(CC)c1-n1c(C)c(C(=O)NCC(C)C)cc(-c2nc(-c3ccc(Cl)cc3)cs2)c1=O [Compound 313] | > 20 µM | 1 to 5 µM | – | –
11 | CCc1cccc(CC)c1-n1c(C(C)C)c(C(=O)N2CCN[C@@H](C(=O)OC)C2)cc(-c2nc(-c3ccc(Cl)cc3)cs2)c1=O [Compound 222] | 1 to 5 µM | < 0.3 µM | – | –
12 | COc1ccc(OC)c(-n2c3c(cc(-c4nc(-c5ccc(Cl)cc5)cs4)c2=O)C(=O)CN(C)C3)c1 [Compound 253] | 1 to 5 µM | 1 to 5 µM | – | –
13 | CCc1cccc(CC)c1-n1c(C=C(C)C)c(C(=O)N2C[C@H]3CC[C@@H](C2)N3)cc(-c2nc(-c3ccc(C(F)(F)F)cc3)cs2)c1=O [Compound 323] | < 0.3 µM | < 0.3 µM | – | –
14 | CC1(C)CC(=O)c2cc(-c3nc(-c4ccc(Cl)cc4)cs3)c(=O)n(-c3ccccc3Cl)c2C1 [Compound 167] | < 0.3 µM | < 0.3 µM | – | –
15 | COc1ccc(OC)c(-n2c3c(cc(-c4cn(-c5ccc(Cl)cc5)cn4)c2=O)C(=O)CC(C)(C)C3)c1 [Compound 65] | > 20 µM | 5 to 20 µM | – | –
16 | CCc1cccc(CC)c1-n1c2c(cc(-c3nc(-c4ccc(Cl)cc4)cs3)c1=O)C(=O)N1CCCCC21 (stereo not shown) [Compound 610] | – | – | 0.3 to 1 µM | 0.3 to 1 µM
17 | CCOc1ncc(C)cc1-n1c(C=C(C)C)c(C(=O)N2CCNCC2)cc(-c2nc(-c3ccc(C(F)(F)F)cc3)cs2)c1=O [Compound 587] | – | – | < 0.3 µM | < 0.3 µM
18 | CCc1cccc(CC)c1-n1c2c(cc(-c3nc(-c4ccc(C(=O)O)cc4)cs3)c1=O)C(=O)CC(C)(C)C2 [Compound 162] | > 20 µM | 5 to 20 µM | – | –
19 | CCc1cccc(CC)c1-n1c(CC(C)C)c(C(=O)N2CCNCC2)cc(-c2nc(-c3ccc(Cl)cc3C)c(C)s2)c1=O [Compound 540] | – | – | 1 to 5 µM | 1 to 5 µM
20 | CCc1cccc(CC)c1-n1c(C)c(C(=O)NC(C)(C)C)cc(-c2nc(-c3ccc(Cl)cc3)cs2)c1=O [Compound 123] | 5 to 20 µM | 1 to 5 µM | – | –
21 | CCc1cccc(CC)c1-n1c(C)c(C(=O)N2CCCC(C(=O)O)C2)cc(-c2nc(-c3ccc(Cl)cc3)cs2)c1=O (stereo not shown) [Compound 259] | 5 to 20 µM | 5 to 20 µM | – | –
22 | CCc1cccc(CC)c1-n1c(CC(C)C)c(C(=O)N2CCNC(C)(C(=O)O)C2)cc(-c2nc(-c3ccc(Cl)cc3)cs2)c1=O (stereo not shown) [Compound 80] | 0.3 to 1 µM | < 0.3 µM | – | –
23 | CCc1cccc(CC)c1-n1c(CC(C)C)c(C(=O)N2CCNCC2)cc(-c2nc(-c3ccc(Cl)c(OC)c3)c(C)s2)c1=O [Compound 633] | 0.3 to 1 µM | 0.3 to 1 µM | – | –
24 | CCc1cccc(CC)c1-n1c(CC)c(C(=O)O)cc(-c2nc(-c3ccc(Cl)cc3)cs2)c1=O [Compound 236] | 1 to 5 µM | 5 to 20 µM | – | –
25 | COc1ccc(OC)c(-n2c3c(cc(-c4nc(-c5ccc(Cl)cc5)cs4)c2=O)C(=O)NCC3)c1 [Compound 244] | 1 to 5 µM | 1 to 5 µM | – | –
26 | CCc1cccc(CC)c1-n1c(C=C(C)C)c(C(=O)N2CCNC(C(=O)O)C2)cc(-c2nc(-c3ccc(Cl)cc3)cs2)c1=O (stereo not shown) [Compound 591] | – | – | < 0.3 µM | < 0.3 µM
